The target of this experiment is Cationic amino acid transporter 3 (Homo sapiens) (UniProt Q8WY07). The experiment is described as follows: CAT-3 electrogenic transport substrate activity – HEK293 JumpIn overexpressing cells, membrane potential dye, dose response (AID 1745863). The following applies: HEK293 JumpIn SLC7A3 OE, membrane potential dye FLIPR.
Sequence of Cationic amino acid transporter 3 (Homo sapiens) (Q8WY07 whole entry, looked up): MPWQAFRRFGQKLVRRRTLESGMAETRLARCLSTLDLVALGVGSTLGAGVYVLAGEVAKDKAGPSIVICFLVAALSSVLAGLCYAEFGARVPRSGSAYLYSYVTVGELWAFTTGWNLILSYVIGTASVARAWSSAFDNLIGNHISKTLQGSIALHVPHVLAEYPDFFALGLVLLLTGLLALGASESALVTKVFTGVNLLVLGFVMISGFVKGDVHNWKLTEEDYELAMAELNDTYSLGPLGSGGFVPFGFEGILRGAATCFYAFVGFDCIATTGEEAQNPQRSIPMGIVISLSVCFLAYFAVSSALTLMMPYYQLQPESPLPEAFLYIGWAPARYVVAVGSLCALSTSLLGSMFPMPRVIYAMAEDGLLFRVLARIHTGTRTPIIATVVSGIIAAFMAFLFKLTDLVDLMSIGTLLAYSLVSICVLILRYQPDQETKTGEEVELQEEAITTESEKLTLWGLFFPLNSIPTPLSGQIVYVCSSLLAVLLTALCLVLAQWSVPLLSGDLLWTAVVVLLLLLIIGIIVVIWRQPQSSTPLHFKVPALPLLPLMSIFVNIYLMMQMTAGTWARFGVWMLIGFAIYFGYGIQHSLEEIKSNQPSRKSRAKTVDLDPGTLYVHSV

As to `NCCCC[C@H](N)C(=O)O`, the EC50 was 158 µM.

In the case of `NCCC[C@H](N)C(=O)O`, the EC50 is 237 µM.

With `NC(N)=NCCC[C@H](N)C(=O)O`, the EC50 was 283 µM.

The record behind these values is PubChem BioAssay AID1745863.
